Assay results published in PubChem BioAssay AID330 (DTP/NCI, 2004).
Several values for one entry are separate records, joined by “and”; a condition that tells them apart may be missing. Equal values may be shown once. Toxic doses and inconclusive results are not listed.

Test system: P388 leukemia ip, CD2F1 mice, survival T/C
Assay: NCI In Vivo Anticancer Drug Screen. Data for tumor model P388 Leukemia (intraperitoneal) in CD2F1 (CDF1) mice
Conditions: endpoint: median survival time, higher = longer survival
Procedure, shortened: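 Mice carrying the transplanted tumor received test compound or vehicle. Survival was recorded in each group, and the value is the treated-group measurement divided by that of the vehicle-treated control group.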

[1] = dose: 50.0 mg/kg/injection, schedule: Q01DX009 (ip), vehicle: Klucel (hydroxypropylcellulose) (HPC)
[2] = dose: 100.0 mg/kg/injection, schedule: Q01DX009 (ip), vehicle: Klucel (hydroxypropylcellulose) (HPC)
[3] = dose: 200.0 mg/kg/injection, schedule: Q01DX009 (ip), vehicle: Klucel (hydroxypropylcellulose) (HPC)
[4] = dose: 30.0 mg/kg/injection, schedule: Q01DX005 (ip), vehicle: saline with Tween-80
[5] = dose: 60.0 mg/kg/injection, schedule: Q01DX005 (ip), vehicle: saline with Tween-80
[6] = dose: 120.0 mg/kg/injection, schedule: Q01DX005 (ip), vehicle: saline with Tween-80
[7] = dose: 240.0 mg/kg/injection, schedule: Q01DX005 (ip), vehicle: saline with Tween-80
[8] = dose: 100.0 mg/kg/injection, schedule: Q01DX009 (ip), vehicle: saline with Tween-80
[9] = dose: 200.0 mg/kg/injection, schedule: Q01DX009 (ip), vehicle: saline with Tween-80
[10] = dose: 400.0 mg/kg/injection, schedule: Q01DX009 (ip), vehicle: saline with Tween-80
[11] = dose: 50.0 mg/kg/injection, schedule: Q01DX009 (ip), vehicle: saline
[12] = dose: 100.0 mg/kg/injection, schedule: Q01DX009 (ip), vehicle: saline
[13] = dose: 50.0 mg/kg/injection, schedule: Q01DX009 (ip), vehicle: saline with Tween-80
[14] = dose: 12.5 mg/kg/injection, schedule: Q01DX009 (ip), vehicle: Klucel (hydroxypropylcellulose) (HPC)
[15] = dose: 25.0 mg/kg/injection, schedule: Q01DX009 (ip), vehicle: Klucel (hydroxypropylcellulose) (HPC)
[16] = dose: 50.0 mg/kg/injection, schedule: Q01DX005 (ip), vehicle: saline with Tween-80
[17] = dose: 100.0 mg/kg/injection, schedule: Q01DX005 (ip), vehicle: saline with Tween-80
[18] = dose: 200.0 mg/kg/injection, schedule: Q01DX005 (ip), vehicle: saline with Tween-80

## Cc1ccc(N2CCCCN(c3ccc(C)cc3)/C(c3ccccc3)=C\2c2ccccc2)cc1
dose: 100.0 mg/kg/injection, schedule: Q01DX001 (ip), vehicle: Klucel (hydroxypropylcellulose) (HPC)
  T/C: 91 % of control
dose: 200.0 mg/kg/injection, schedule: Q01DX001 (ip), vehicle: Klucel (hydroxypropylcellulose) (HPC)
  T/C: 91 % of control
dose: 400.0 mg/kg/injection, schedule: Q01DX001 (ip), vehicle: Klucel (hydroxypropylcellulose) (HPC)
  T/C: 101 % of control and 91 % of control

## CCCCCCC1C(C#N)C(=O)NC(=O)C1C#N (stereo not given)
[1]
  T/C: 96 % of control
[2]
  T/C: 95 % of control
[3]
  T/C: 93 % of control

## CCOC(=O)c1cc(/C=C/c2cccc(Cl)c2)on1
dose: 15.0 mg/kg/injection, schedule: Q01DX005 (ip), vehicle: saline with Tween-80
  T/C: 93 % of control
[4]
  T/C: 100 % of control and 90 % of control
[5]
  T/C: 90 % of control
[6]
  T/C: 93 % of control
[7]
  T/C: 95 % of control

## O=C(c1ccc(-c2ccccc2)cc1)C1(Br)CCCCC1
[8]
  T/C: 100 % of control
[9]
  T/C: 100 % of control
[10]
  T/C: 100 % of control

## COc1cc(/C=C/C(=O)c2c(N)n(C)c(=O)n(C)c2=O)cc(OC)c1OC
[1]
  T/C: 113 % of control
[2]
  T/C: 115 % of control
[3]
  T/C: 113 % of control

## CC(O)CN1C=NC(C)C1 (stereo not given)
[11]
  T/C: 95 % of control
[12]
  T/C: 100 % of control
dose: 200.0 mg/kg/injection, schedule: Q01DX009 (ip), vehicle: saline
  T/C: 103 % of control

## CCC1CN1P(=O)(N(CC)CC)N1CC1CC (stereo not given)
[11]
  T/C: 109 % of control
[12]
  T/C: 170 % of control

## [O-]/[N+]1=[N+](\[O-])c2ccccc2COCc2ccccc21
[5]
  T/C: 96 % of control
[6]
  T/C: 93 % of control
[7]
  T/C: 89 % of control

## S=C=NCCCCCCCCCCCCN=C=S
dose: 3.12 mg/kg/injection, schedule: Q01DX009 (ip), vehicle: saline with Tween-80
  T/C: 112 % of control and 115 % of control
dose: 6.25 mg/kg/injection, schedule: Q01DX009 (ip), vehicle: saline with Tween-80
  T/C: 106 % of control and 120 % of control

## O=C(O)c1cc(F)cc(C(=O)O)c1
dose: 50.0 mg/kg/injection, schedule: Q04DX003 (ip), vehicle: suspension in saline
  T/C: 109 % of control
dose: 100.0 mg/kg/injection, schedule: Q04DX003 (ip), vehicle: suspension in saline
  T/C: 104 % of control
dose: 200.0 mg/kg/injection, schedule: Q04DX003 (ip), vehicle: suspension in saline
  T/C: 110 % of control

## O=C(/C=C/c1cccc([N+](=O)[O-])c1)c1ccccc1
[13]
  T/C: 99 % of control
[8]
  T/C: 92 % of control
[9]
  T/C: 92 % of control
[10]
  T/C: 100 % of control

## O=C(O)C1CCCN1C(=O)c1ccc(Cl)cc1 (stereo not given)
dose: 12.5 mg/kg/injection, schedule: Q01DX005 (ip), vehicle: distilled water + Tween-80
  T/C: 99 % of control
dose: 25.0 mg/kg/injection, schedule: Q01DX005 (ip), vehicle: distilled water + Tween-80
  T/C: 101 % of control
dose: 50.0 mg/kg/injection, schedule: Q01DX005 (ip), vehicle: distilled water + Tween-80
  T/C: 97 % of control
dose: 100.0 mg/kg/injection, schedule: Q01DX005 (ip), vehicle: distilled water + Tween-80
  T/C: 100 % of control
dose: 200.0 mg/kg/injection, schedule: Q01DX005 (ip), vehicle: distilled water + Tween-80
  T/C: 104 % of control

## O=C(O)C1C2CC3C(OC(=O)C31)C2Br (stereo not given)
[5]
  T/C: 100 % of control
[6]
  T/C: 97 % of control
[7]
  T/C: 96 % of control

## COc1cc2c(cc1O)CCCCC2
dose: 100.0 mg/kg/injection, schedule: Q01DX009 (sc), vehicle: olive oil, sesame oil, peanut oil
  T/C: 101 % of control
dose: 200.0 mg/kg/injection, schedule: Q01DX009 (sc), vehicle: olive oil, sesame oil, peanut oil
  T/C: 101 % of control
dose: 400.0 mg/kg/injection, schedule: Q01DX009 (sc), vehicle: olive oil, sesame oil, peanut oil
  T/C: 104 % of control

## CC(=O)NC(C=O)C(O)C(O)C(O)C(=O)O (stereo not given) (tested in a mixture with another compound)
dose: 6.25 mg/kg/injection, schedule: Q01DX009 (ip), vehicle: Klucel (hydroxypropylcellulose) (HPC)
  T/C: 101 % of control
[14]
  T/C: 94 % of control
[15]
  T/C: 92 % of control

## COCCOC(=O)CCCCC(=O)OCCOC
[8]
  T/C: 100 % of control
dose: 100.0 mg/kg/injection, schedule: Q04DX003 (ip), vehicle: saline sonified
  T/C: 100 % of control
[9]
  T/C: 104 % of control
dose: 200.0 mg/kg/injection, schedule: Q04DX003 (ip), vehicle: saline sonified
  T/C: 100 % of control
[10]
  T/C: 109 % of control
dose: 400.0 mg/kg/injection, schedule: Q04DX003 (ip), vehicle: saline sonified
  T/C: 95 % of control

## O=C(O)CCN(Cl)Cl
dose: 60.0 mg/kg/injection, schedule: Q01DX005 (ip), vehicle: saline
  T/C: 98 % of control
dose: 120.0 mg/kg/injection, schedule: Q01DX005 (ip), vehicle: saline
  T/C: 104 % of control
dose: 240.0 mg/kg/injection, schedule: Q01DX005 (ip), vehicle: saline
  T/C: 95 % of control

## C/C=C1/CN2C3C[C@H]1C(CO)(C(=O)OC)[C@H]2Cc1c3n(C)c2ccccc12 (stereo not given in full)
dose: 10.0 mg/kg/injection, schedule: Q01DX009 (ip), vehicle: Klucel (hydroxypropylcellulose) (HPC)
  T/C: 100 % of control
dose: 20.0 mg/kg/injection, schedule: Q01DX009 (ip), vehicle: Klucel (hydroxypropylcellulose) (HPC)
  T/C: 101 % of control
dose: 40.0 mg/kg/injection, schedule: Q01DX009 (ip), vehicle: Klucel (hydroxypropylcellulose) (HPC)
  T/C: 104 % of control
dose: 80.0 mg/kg/injection, schedule: Q01DX009 (ip), vehicle: Klucel (hydroxypropylcellulose) (HPC)
  T/C: 100 % of control
dose: 160.0 mg/kg/injection, schedule: Q01DX009 (ip), vehicle: Klucel (hydroxypropylcellulose) (HPC)
  T/C: 94 % of control

## C/C=C(/C)C(=O)OC/C(=C/C)C(=O)OC1C=CC(C)(C)C(C=O)=C1C (stereo not given)
[14]
  T/C: 93 % of control
[15]
  T/C: 93 % of control
[2]
  T/C: 93 % of control

## CC(c1c[nH]c2ccccc12)N1CCCCC1 (stereo not given)
[14]
  T/C: 109 % of control
[15]
  T/C: 115 % of control
[1]
  T/C: 113 % of control

## C=C(C)C1CC=C(CCCC(C)COC2OCC(OC(=O)/C(C)=C/CCC3=CCC(C(=C)C)CC3O)C(O)C2O)CC1 (stereo not given)
dose: 10.75 mg/kg/injection, schedule: Q01DX005 (ip), vehicle: Klucel (hydroxypropylcellulose) (HPC)
  T/C: 103 % of control
dose: 21.5 mg/kg/injection, schedule: Q01DX005 (ip), vehicle: Klucel (hydroxypropylcellulose) (HPC)
  T/C: 114 % of control
dose: 43.0 mg/kg/injection, schedule: Q01DX005 (ip), vehicle: Klucel (hydroxypropylcellulose) (HPC)
  T/C: 119 % of control

## Cc1cc(N=[N+]=[N-])c2cc3c(cc2n1)OCO3
[5]
  T/C: 103 % of control
[6]
  T/C: 95 % of control
[7]
  T/C: 94 % of control

## CC(CC(O)C(=O)O)CC(C)(C)C (stereo not given)
[16]
  T/C: 95 % of control
[17]
  T/C: 96 % of control
[18]
  T/C: 101 % of control

## FC(F)C(F)(F)C(F)(F)C(F)(F)COCC1(COCC(F)(F)C(F)(F)C(F)(F)C(F)F)COC1
[13]
  T/C: 100 % of control
[8]
  T/C: 106 % of control
[9]
  T/C: 109 % of control

## CCN(CC)CCOC(=O)Nc1cc(Cl)cc(Cl)c1
[5]
  T/C: 100 % of control
[6]
  T/C: 101 % of control
[7]
  T/C: 100 % of control

## CS(C)(=O)=Nc1ccc(Br)cc1
dose: 100.0 mg/kg/injection, schedule: Q04DX002 (ip), vehicle: saline with Tween-80
  T/C: 98 % of control
dose: 200.0 mg/kg/injection, schedule: Q04DX002 (ip), vehicle: saline with Tween-80
  T/C: 98 % of control
dose: 400.0 mg/kg/injection, schedule: Q04DX002 (ip), vehicle: saline with Tween-80
  T/C: 103 % of control

## CCCCc1c(O)nc2nc(-c3ccccc3)c(-c3ccccc3)nn2c1=O
dose: 3.12 mg/kg/injection, schedule: Q01DX005 (ip), vehicle: Klucel (hydroxypropylcellulose) (HPC)
  T/C: 107 % of control
dose: 6.25 mg/kg/injection, schedule: Q01DX005 (ip), vehicle: Klucel (hydroxypropylcellulose) (HPC)
  T/C: 103 % of control
dose: 12.5 mg/kg/injection, schedule: Q01DX005 (ip), vehicle: Klucel (hydroxypropylcellulose) (HPC)
  T/C: 94 % of control

## COc1cccc(N=Nc2c(-c3ccccc3)nn(C(=S)S)c2C)c1
[16]
  T/C: 93 % of control
[17]
  T/C: 93 % of control
[18]
  T/C: 91 % of control

## COC(=O)c1cc(-c2ccc3ccccc3c2)[nH]c(=O)c1C#N
[4]
  T/C: 100 % of control
[5]
  T/C: 91 % of control and 92 % of control
[6]
  T/C: 96 % of control
